In PMC7215599, “Synthesis, Antitumor Evaluation, Molecular Modeling and Quantitative Structure–Activity Relationship (QSAR) of Novel 2-[(4-Amino-6-N-substituted-1,3,5-triazin-2-yl)methylthio]-4-chloro-5-methyl-N-(1H-benzo[d]imidazol-2(3H)-ylidene)Benzenesulfonamides” (International Journal of Molecular Sciences, 2020):

What was measured:
[1] = system: MCF-7 (breast cancer) cell line; assay: MTT cell viability assay, MCF-7; assay type: cell-based, human; details: for IC50: MTT, 72 h, 1-100 µM, mean ± SD
Experimental: (§1) Compounds 6–49 were evaluated in vitro for their effects on the viability of the three human cancer cell lines: HCT-116 (colon cancer), MCF-7 (breast cancer) and HeLa (cervical cancer) as well as the non-cancerous keratinocyte cell line (HaCaT). The concentration required for 50% inhibition of cell viability IC50 was calculated and compared with the reference drug cisplatin, the results are shown in Table 1.
(§2) Cell lines: colon cancer (HCT-116), breast cancer (MCF-7), cervical cancer (HeLa), the human keratinocyte cell line (HaCaT); NT—not tested; IC50 was measured at concentrations 1, 10, 25, 50, and 100 µM. IC50 values are expressed as the mean ± SD of at last three independent experiments.
(§3) All chemicals, if not stated otherwise, were obtained from Sigma–Aldrich (St. Louis, MO, USA). The HCT-116 cell lines was purchased from ATCC (ATCC-No: CCL-247), while the MCF-7, HeLa and HaCaT cell lines were purchased from Cell Lines Services (Eppelheim, Germany). Cells were cultured in Dulbecco’s modified Eagle’s medium (DMEM) supplemented with 10% fetal bovine serum, 2 mM glutamine, 100 units/mL penicillin, and 100 µg/mL streptomycin. Cultures were maintained in a humidified atmosphere with 5% carbon dioxide at 37 °C in an incubator (Heraceus, HeraCell).
(§4) Cell viability was examined using the MTT (3-(4,5-dimethylthiazol-2-yl)-2,5-diphenyltetrazolium bromide) assay. Cells were seeded in 96-well plates at a density of 5 × 10^3 cells/well and treated for 72 h with the tested compounds in the concentration range of 1–100 µM (1, 10, 25, 50 and 100 µM). Then, MTT (0.5 mg/mL) was added to the medium and cells were further incubated for 2 h at 37 °C. In the next stage, cells were lysed with DMSO and the absorbance of the formazan solution was measured at 550 nm with a plate reader (1420 multilabel counter, Victor, Jügesheim, Germany). The experiment was performed in triplicate. Values are expressed as the mean ± SD of at least three independent experiments. Cisplatin was used as a positive control.

[2] = system: HeLa (cervical cancer) cell line; assay: MTT cell viability assay, HeLa; assay type: cell-based, human; details: 72 h, MTT, 1-100 µM, mean ± SD
Experimental: as §1, §2, §3, §4

[3] = system: HCT-116 (colon cancer) cell line; assay: MTT cell viability assay, HCT-116; assay type: cell-based, human; details: for IC50: MTT, 72 h, 1-100 µM, mean ± SD
Experimental: as §1, §2, §3, §4

[4] = system: HaCaT (non-cancerous keratinocyte cell line); assay: MTT cell viability assay, HaCaT; assay type: cell-based; details: Homo sapiens, 72 h, 1-100 µM, mean ± SD, non-cancerous cells
Experimental: as §1, §2, §3, §4

[5] = system: HCT-116, MCF-7 and HeLa cell lines; assay: MTT cell viability assay, all tested cancer cell lines taken together; assay type: cell-based; details: Homo sapiens; range over HCT-116, MCF-7 and HeLa; read-out: IC50 toward all of the tested cell lines (range over the lines)
Experimental: as §1, §2, §3, §4

SMILES	IC50 ([1]; Homo sapiens, MCF7, 72 h) [µM]	IC50 [1] [µM]	selectivity ratio HaCaT/MCF-7 ([1]; ratio of IC50 values)	IC50 ([2]; Homo sapiens, HeLa) [µM]	IC50 [2] [µM]	IC50 ([3]; Homo sapiens, HCT-116, 72 h) [µM]	IC50 [3] [µM]	selectivity ratio HaCaT/HCT-116 ([3]; ratio of IC50 values)	IC50 [4] [µM]	IC50 [5] [µM]
Cc1cc(S(=O)(=O)N=c2[nH]c3ccc(Cl)cc3[nH]2)c(SCc2nc(N)nc(N3CCN(c4ccc(F)cc4)CC3)n2)cc1Cl [Compound 46, 2-[{4-Amino-6-[4-(4-fluorophenyl)piperazin-1-yl]-1,3,5-triazin-2-yl}metylthio]-4-chloro-N-(5-chloro-1H-benzo[d]imidazol-2(3H)-ylidene)-5-methylbenzenesulfonamide]	17 to 19	15 ± 1	2	11 to 18	18 ± 1	7 to 11	7 ± 0.1	4	28 ± 1	7 to 19
Cc1cc(S(=O)(=O)N=c2[nH]c3ccccc3[nH]2)c(SCc2nc(N)nc(N3CCN(c4ccc(F)cc4)CC3)n2)cc1Cl [Compound 20, 2-[{4-Amino-6-[4-(4-fluorophenyl)piperazin-1-yl]-1,3,5-triazin-2-yl}methylthio]-N-(1H-benzo[d]imidazol-2(3H)-ylidene)-4-chloro-5-methylbenzenesulfonamide]	17 ± 0.5	–	–	17 ± 1	–	16 ± 0.5	–	–	35 ± 1	7 to 19
Cc1cc(S(=O)(=O)N=c2[nH]c3ccc(Cl)cc3[nH]2)c(SCc2nc(N)nc(Nc3ccccc3)n2)cc1Cl [Compound 42, 2-{[4-Amino-6-(phenylamino)-1,3,5-triazin-2-yl]methylthio}-4-chloro-N-(5-chloro-1H-benzo[d]imidazol-2(3H)-ylidene)-5-methylbenzenesulfonamide]	23 ± 1	–	–	24 ± 1	–	18 ± 1	–	–	37 ± 1	17 to 30
Cc1cc(S(=O)(=O)N=c2[nH]c3ccccc3[nH]2)c(SCc2nc(N)nc(N3CCN(S(=O)(=O)c4ccccc4)CC3)n2)cc1Cl [Compound 32, 2-[{4-Amino-6-[4-(phenylsulfonyl)piperazin-1-yl]-1,3,5-triazin-2-yl}methylthio]-N-(1H-benzo[d]imidazol-2(3H)-ylidene)-4-chloro-5-methylbenzenesulfonamide]	> 100	137 ± 3	–	–	–	–	–	–	–	137 to 280
Cc1cc(S(=O)(=O)N=c2[nH]c3ccccc3[nH]2)c(SCc2nc(N)nc(N3CCN(c4ccc(Cl)cc4)CC3)n2)cc1Cl [Compound 23, 2-[{4-Amino-6-[4-(4-chlorophenyl)piperazin-1-yl]-1,3,5-triazin-2-yl}methylthio]-N-(1H-benzo[d]imidazol-2(3H)-ylidene)-4-chloro-5-methylbenzenesulfonamide]	17 ± 0.5	–	–	17 ± 1	–	16 ± 0.5	–	–	35 ± 1	7 to 19
Cc1cc(S(=O)(=O)N=c2[nH]c3ccccc3[nH]2)c(SCc2nc(N)nc(N3CCN(C)CC3)n2)cc1Cl [Compound 18, 2-{[4-Amino-6-(4-methylpiperazin-1-yl)-1,3,5-triazin-2-yl]metylthio}-N-(1H-benzo[d]imidazol-2(3H)-ylidene)-4-chloro-5-methylbenzenesulfonamide]	> 100	82 ± 3	–	61 ± 2	–	42 ± 2	–	–	84 ± 3	42 to 82
Cc1cc(S(=O)(=O)N=c2[nH]c3ccc(F)cc3[nH]2)c(SCc2nc(N)nc(N3CCc4ccccc43)n2)cc1Cl [Compound 34, 2-{[4-Amino-6-(indolin-1-yl)-1,3,5-triazin-2-yl]metylthio}-4-chloro-N-(5-fluoro-1H-benzo[d]imidazol-2(3H)-ylidene)-5-methylbenzenesulfonamide]	25 ± 1	–	–	30 ± 1	–	17 ± 1	–	–	41 ± 1	17 to 30
Cc1cc(S(=O)(=O)N=c2[nH]c3ccccc3[nH]2)c(SCc2nc(N)nc(N3CCc4ccccc43)n2)cc1Cl [Compound 9, 2-{[4-Amino-6-(indolin-1-yl)-1,3,5-triazin-2-yl]metylthio}-N-(1H-benzo[d]imidazol-2(3H)-ylidene)-4-chloro-5-methylbenzenesulfonamide]	20 ± 1	–	–	23 ± 1	–	25 ± 1	–	–	42 ± 2	17 to 30
Cc1cc(S(=O)(=O)N=c2[nH]c3ccccc3[nH]2)c(SCc2nc(N)nc(N3CCN(c4ccccc4)CC3)n2)cc1Cl [Compound 19, 2-{[4-Amino-6-(4-phenylpiperazin-1-yl)-1,3,5-triazin-2-yl]methylthio}-N-(1H-benzo[d]imidazol-2(3H)-ylidene)-4-chloro-5-methylbenzenesulfonamide]	19 ± 1	–	–	18 ± 1	–	15 ± 1	–	–	31 ± 1	7 to 19
Cc1cc(S(=O)(=O)N=c2[nH]c3ccc(Cl)cc3[nH]2)c(SCc2nc(N)nc(N3CCN(c4ccc(Cl)c(Cl)c4)CC3)n2)cc1Cl [Compound 48, 2-[{4-Amino-6-[4-(3,4-dichlorophenyl)piperazin-1-yl]-1,3,5-triazin-2-yl}methylthio]-4-chloro-N-(5-chloro-1H-benzo[d]imidazol-2(3H)-ylidene)-5-methylbenzenesulfonamide]	32 ± 1	–	–	34 ± 1	–	34 ± 2	–	–	40 ± 2	–
Cc1cc(S(=O)(=O)N=c2[nH]c3ccc(F)cc3[nH]2)c(SCc2nc(N)nc(N3CCN(c4ccc(F)cc4)CC3)n2)cc1Cl [Compound 38, 2-[{4-Amino-6-[4-(4-fluorophenyl)piperazin-1-yl]-1,3,5-triazin-2-yl}metylthio]-4-chloro-N-(5-fluoro-1H-benzo[d]imidazol-2(3H)-ylidene)-5-methylbenzenesulfonamide]	24 ± 1	–	–	18 ± 1	–	14 ± 1	–	–	38 ± 2	–
Cc1cc(S(=O)(=O)N=c2[nH]c3ccc(Cl)cc3[nH]2)c(SCc2nc(N)nc(Nc3ccc(F)cc3)n2)cc1Cl [Compound 43, 2-[{4-Amino-6-[(4-fluorophenyl)amino]-1,3,5-triazin-2-yl}methylthio]-4-chloro-N-(5-chloro-1H-benzo[d]imidazol-2(3H)-ylidene)-5-methylbenzenesulfonamide]	44 ± 2	–	–	45 ± 2	–	43 ± 1	–	–	55 ± 2	–
